Results from US20060079453A1, “Hla binding peptides and their uses” (priority 2002, published 2006).
No end group written: not given here.

Columns and labels:
Assay in all cases: biochemical
Type in all cases: binding
HLA-DR DRB3*0101 (DR52) = HLA-DR DRB3*0101 (DR52) (Homo sapiens, UniProt P01903+P79483)
HLA-DR DRB4*0101 (DR53) = HLA-DR DRB4*0101 (DR53) (Homo sapiens, UniProt P01903+P13762, G164S); settings: DRB4 *0101
HLA-DR DRB1*1302 (DR13) = HLA-DR DRB1*1302 (DR13) (Homo sapiens, UniProt P01903+P01911, A100E/A169T/K41T/L162R/M171V/P40S/Q125H/Q178H/Q39Y/Q99D/R42S/S66N/T262R/V115G/W38E/Y61H); settings: DRBI *1302
HLA-DR DRB1*0405 (DR4) = HLA-DR DRB1*0405 (DR4) (Homo sapiens, UniProt P01903+P01911, A100R/A169T/D86S/F76Y/I96L/K127E/L162R/M171V/N62H/P40V/Q125Y/R42H/S133A/S149N/S66Y/V115G/V209L/W38E); settings: DRB1 *0405
HLA-DR DRB5*0101 (DR51) = HLA-DR DRB5*0101 (DR51) (Homo sapiens, UniProt P01903+Q30154); settings: DRB5 *0101
HLA-DR DRB1*1101 (DR11) = HLA-DR DRB1*1101 (DR11) (Homo sapiens, UniProt P01903+P01911, A100R/A169T/A87E/I96F/K41T/L162R/M171V/P40S/Q125H/Q178H/Q39Y/Q99D/R42S/S66Y/T262R/V115G/W38E); settings: DRB1 *1101
HLA-DR DRB1*0802 (DR8) = HLA-DR DRB1*0802 (DR8) (Homo sapiens, UniProt P01903+P01911, A100R/A103L/A169T/F76Y/H45Y/I96F/K41T/L162R/M171V/P40S/Q125H/Q178H/Q39Y/Q99D/R218S/R42G/S66Y/V115G/W38E)
HLA-DR DRB1*0301 (DR3) = HLA-DR DRB1*0301 (DR3) (Homo sapiens, UniProt P01903+P01911, A100K/A102G/A103R/A169T/F55Y/I96L/K41T/L162R/M171V/P40S/Q125H/Q178H/Q39Y/R42S/S66N/T106N/T262R/W38E/Y61H)
HLA-DR DRB1*0101 (DR1) = HLA-DR DRB1*0101 (DR1) (Homo sapiens, UniProt P01903+P01911, A100R/D57E/F55L/F60I/F76Y/I96L/L162R/M171V/P40L/Q125E/R42F/V115G/Y59C); settings: DRB1 *0101
HLA-DR DRB1*0901 (DR9) = HLA-DR DRB1*0901 (DR9) (Homo sapiens, UniProt P01903+P01911, A100R/A103E/D57H/D86V/F55Y/F60I/F76Y/I96F/K127E/L162R/M171V/P40D/Q125H/Q99R/R33Q/R42F/S133A/S66N/T210M/V115G/W38K/Y107V/Y59G/Y89S); settings: DRB1 *0901
HLA-DR DRB1*0701 (DR7) = HLA-DR DRB1*0701 (DR7) (Homo sapiens, UniProt P01903+P01911, A100R/A102G/A103Q/D57E/D86V/E43K/F76Y/K127E/L162R/M171V/P40G/Q125H/Q99D/R33Q/R42Y/R54Q/S133A/S66F/T210M/V115G/Y107V/Y59L/Y89S); settings: DRB1 *0701
HLA-DR DRB1*0401 (DR4) = HLA-DR DRB1*0401 (DR4) (Homo sapiens, UniProt P01903+P01911, A100K/A169T/F76Y/I96L/K127E/L162R/M171V/N62H/P40V/Q125Y/R42H/S133A/S149N/S66Y/V115G/V209L/W38E); settings: DRB1 *0401
HLA-DR DRB1*1501 (DR15) = HLA-DR DRB1*1501 (DR15) (Homo sapiens, UniProt P01903+P01911); settings: DRBI *1501

Sequence of HLA-DR DRB1*1302 (DR13) (P01903 26-254 limits assumed, other chains not shown): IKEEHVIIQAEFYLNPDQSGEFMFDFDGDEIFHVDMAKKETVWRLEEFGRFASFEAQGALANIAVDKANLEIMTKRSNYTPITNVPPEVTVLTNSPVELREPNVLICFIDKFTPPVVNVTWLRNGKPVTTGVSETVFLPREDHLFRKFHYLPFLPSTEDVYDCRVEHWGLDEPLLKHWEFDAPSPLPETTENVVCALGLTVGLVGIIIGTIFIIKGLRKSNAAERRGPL
Sequence of HLA-DR DRB1*0301 (DR3) (P01903 26-254 limits assumed, other chains not shown): as above
Sequence of HLA-DR DRB1*1101 (DR11) (P01903 26-254 limits assumed, other chains not shown): as above

Sequence	IC50 (HLA-DR DRB3*0101 (DR52)) [µM]	IC50 (HLA-DR DRB4*0101 (DR53)) [nM]	IC50 (HLA-DR DRB1*1302 (DR13)) [nM]	IC50 (HLA-DR DRB1*0405 (DR4)) [nM]	IC50 (HLA-DR DRB5*0101 (DR51)) [nM]	IC50 (HLA-DR DRB1*1101 (DR11)) [µM]	IC50 (HLA-DR DRB1*0802 (DR8)) [µM]	IC50 (HLA-DR DRB1*0301 (DR3)) [µM]	IC50 (HLA-DR DRB1*0101 (DR1)) [nM]	IC50 (HLA-DR DRB1*0901 (DR9)) [µM]	IC50 (HLA-DR DRB1*0701 (DR7)) [nM]	IC50 (HLA-DR DRB1*0401 (DR4)) [nM]	IC50 (HLA-DR DRB1*1501 (DR15)) [nM]
AVTIYEMLQNIFAIF	2.83	1120	109	163	14000	29.7	6.87	23.7	17	4.54			
EQTTTSITSLYQLEN	> 18.7	29600		272	48500	> 10.5	> 54.4	> 144	19000	17.4	2230	170	
FLRSVFANSLVYGAS	158		5.6	59	141	0.973	13.4		4.3	15.1	16	6.7	13
FTRGKRMSSLHLKRY	18.8	2030	10200	484	84	0.081	0.553	3.3	13			1010	
FVNQHLCGSDLVEAL [FVNQHLCGSDLVEAL]	10	24500	20200	14900	> 43300	> 1110	> 54.4	> 74.8	117	> 63		19200	
GSHLVEALYLVTGER	18.2	225	12200	14400	11400	> 10.5	> 54.4	> 176	645	> 63	553	15800	
HLKRYYGRILHYLKA	6.61	22	868	86	2.3		0.237	3.71	26	2.9	214		0.69
KLSQELHKLQTYPRT	> 263	870	> 12600	12200	37	2.38	28.7	197	19	19.1	85500	19700	
LFFYRKSVWSKLQSI	5.91	1930	121	84	18	0.012	0.065	30.2	19		84	913	20
LGFLQRSSNCQSQKL	> 1750	124	131	228	508	0.604	0.405	4.89			305	8.1	
LYFVKVDVTGAYDTI	0.016	22	79	14	4960	0.221	0.413	0.0096	16		5890	2.8	9750
QCQKLLWQLNGRLEY	8.71	209		1000	924	1.64	2.52	133		4.67	3700	360	
QTQKLLWQLNGRLEY	6.58	88	121	86		20.7	2.04	3.55	32		3100	55	20
RMSSLHLKRYYGRIL	> 26.2	2260	2530	34	491	1.03	0.277		275	15	283	993	1.3
RPIVNMDYVVGARTFRREKR	3.32	160	73	812	6.6		0.748	0.022	29		346	3.1	43
RSSNCQSQKLLWQLN	68.8	27	1960	4010		> 60.6	6.94	57.9	2050			595	2960
RTGQIFKQTYSKFDT	14.7	201	66	40	64	6.96	16.4	20.3	1550		46	1680	155
SFLQNPQTSLTFSES	0.864		121	9560		> 15.4	> 33.3	2.39			6200	7780	1510
SNLELLRICLLLIQS	17	164	773	1110	> 11800	> 15.4	19.8	61.9			1220		90
SWLEPVQFLRSVFAN	> 270		4320	883	4810		3.42	167	11	4	589		
TSLTFSESIPTPSNR	> 95.2	3480	16	686	> 1340	22.2	17.6	17.4		2.46		18	
VEALYLVTGERGFFY	17.2	13		2340	78	4.86	1.22	2.01	9.9	0.683	195	60	
YLVCGERGFFYTDKT	0.616	48100	1010	> 30100	> 28400	> 60.6	> 54.4	11.8			92300	> 20500	> 25600
YLVTGERGFFYTDKT	0.359	30800	17400	> 30100	> 28400	16.8	> 25.8		3260	2.91		> 20500	> 25600
